Experimental data as given in patent US8883856B2, “Compositions and methods for the treatment of inflammatory diseases using topoisomerase inhibitors” (priority 2000, dated 2014).
Read-outs that look alike come from different tables or passages of the source.

How the values were obtained:
proteoglycan gene = assay: Proteoglycan gene expression in chondrocytes; assay type: cell-based, calf
Source text: This assay measures the levels of RNA for the two metalloproteinases, collagenase and stromelysin. Over-expression of these genes results in excessive synthesis and secretion of these two enzymes from articular chondrocytes and may represent part of the pathophysiology of rheumatoid arthritis. Agents that inhibit over-expression of collagenase and stromelysin can be antiarthritc agents. […] Proteoglycan gene expression is part of the normal physiology of chondrocytes.
Primary chondrocyte culture was freshly isolated from calf cartilage. The cells were plated (at 2.5×10^6/mL) in 100×20 mm culture dishes and incubated in Ham's F12 medium containing 5% fetal bovine serum (FBS) overnight at 37° C. The cells were starved with serum-free medium overnight. The cells were pretreated with camptothecin at concentrations of 10^−6 M, 10^−7 M and 10^−8 M for 6 hours. Then IL-1 (20 ng/mL) was added to each plate and the plates were incubated for an additional 18 hours. Total RNA was isolated by the acidified guanidine isothiocyanate method and subjected to electrophoresis on a denatured gel. Denatured RNA samples (15 ug) were analyzed by gel electrophoresis in a 1% denaturing gel, transferred to a nylon membrane, and hybridized respectively with the ^32P-labelled collagenase cDNA probe, ^32P-labelled stromelycin cDNA probe, ^32P-labelled proteoglycan cDNA probe and ^32P-labelled glyceraldehyde phosphate dehydrogenase (PAGDH) cDNA. The PAGDH levels acted as an internal standard to ensure roughly equal loading. The experimental results on X-ray films were scanned and analyzed with HP ScanJet.

surgical adhesions = assay type: in vivo; conditions: for mean surgical adhesion score: 2.5% loaded crosslinked HA film, 8 days, scale 0 (no adhesions) to 3 (inseparable without cutting), control film mean 2.33; for surgical adhesion formation, in words: drug-loaded crosslinked HA films (camptothecin 2.5%, doxorubicin 2.5%, beta-lapachone 5%, curcumin 10%)
Description: The rat caecal-sidewall adhesion model was used to test efficacy of crosslinked hyaluroinc acid (HA) polymeric films loaded with one of the following compounds; camptothecin 2.5% loading (w/w to polymer), curcumin 10%, doxorubicin 2.5%, beta-lapachone at 5% or unloaded-no-drug control. Films of 2-2.5 cm^2 were prepared with each drug by the method described in example 10. ETO sterilized, and divided in half at the time of surgical implantation. Sham surgeries omitted the application of HA film as separate controls.
Sprague Dawley rats, 15 male and 15 female, weighing 250-400 g were anaesthetized with Halothane (5%) and maintained, by nose cone, on 1.5-2% Halothane. Surgeries were conducted under sterile conditions. The abdomen was shaved, scrubbed with an antiseptic wash, and opened at the linea alba with a 3 cm incision. A region of the abdominal cavity immediately opposite the large bowel was isolated with bowel clamps, and a #11 scalpel blade was used to score a section of the transversus muscle, describing a rectangle 1×1.5 cm. The muscle was stripped from the peritoneal sidewall with forceps, and minor bleeding was arrested by tamponade. The large bowel was then externalized with sterile swabs, and caecal contents evacuated into the large bowel. Both surfaces of the caecum were stroked, 45 times on each side, with a #10 scalpel blade to produce erythema and punctated bleeding. Each stroke spanned the caecal diameter (approximately 1 cm), and extended along 1.5 cm of the caecal extremity. In only one case did this abrasion procedure cause sustained bleeding requiring ligation. Following 90 blade strokes, the integrity of the tissue was confirmed, and caecum and large bowel were replaced in the pelvis.
The film was laid over the rectangular sidewall abrasion (except in the case of sham surgeries), covering the area of damaged tissue. The abraded caecum, relocated in its previous orientation, was than overlaid such that the entire sidewall wound and film were covered by it. Four tacking sutures were placed at the outer extremities of the abraded area of the caecum securing it to the intact peritoneal sidewall immediately outside the rectangular wound area. The abdomen was closed in two layers, and antibiotics administered intramuscularly before the animal regained consciousness.
. Adhesions over, and adjacent to the caecum were rated according to the following findings: 0: No adhesions connecting caecum to sidewall wound; 1: Filmy or stranded were separable by blunt dissection; 2: Cohesive adhesions attaching the caecum to the sidewall were separable by aggressive blunt dissection; 3: Adhesions inseparable without cutting, or without tearing/damaging caecum. Fractions were assigned where a variety of ratings seemed applicable.

[1] = Encapsulation efficiency of drug in polymer microspheres; assay type: physicochemical
Description: Camptothecin (Sigma) was dissolved in a 5% (w/v) solution of poly(L-lactic acid) (2K molecular weight, Polysciences) in various ratios of drug to polymer (from 0.5:100 to 8:100 (w/w). Ten ml of each of these solutions were pipetted into 100 ml of a 2.5% (w/v) solution of poly vinyl alcohol (PVA, mol wt 13-21K Aldrich) with over head stirring at 500 rpm. After two hours stirring the PVA/microsphere suspension was poured through 90 um then 50 um sieves to collect the 50-90 um fraction of microspheres. These spheres were then washed in distilled water three times and dried under vacuum. The dried spheres were obtained in high yields (over 50% of the initial polymer was recovered as microspheres in the 50-90 um size range). […] Encapsulation efficiency was measured by dissolving microspheres in 1 ml of dichlomethane, extracting the drug into a 60/40 (v/v) acetonitrile water mixture and analysis by visible absorbance at 370 nm. The encapsulation efficiency of the drug in the polymer varied with the initial ratio of drug to polymer with high ratios resulting in a high level of encapsulation.
Plumbagin (Sigma) was dissolved in a 5% (w/v) solution of poly (L-lactic acid) (2K molecular weight, Polysciences) to give a final ratio of drug to polymer of 1:10 (w/w). Ten ml of this solution was pipetted into 100 ml of a 2.5% (w/v) solution of poly vinyl alcohol (PVA, mol wt 13-21K Aldrich) with over head stirring at 500 rpm. After two hours stirring the PVA/microsphere suspension was poured through 90 um then 50 um sieves to collect the 50-90 um fraction of microspheres. These spheres were then washed in distilled water three times and dried under vacuum. The dried spheres were obtained in high yields with over 50% of the initial polymer being recovered in microspheres in the 50-90 um size range. The microspheres were dense yellow in colour indicating high encapsulation efficiency of the drug plumbagin. The encapsulation efficiency was measured by dissolving the microspheres in 1 ml of dichlomethane, extracting the drug into a 60/40 (v/v) acetonitrile water mixture and analysis by visible absorbance at 420 nm. The encapsulation efficiency of the drug in the polymer was 80%.
(§1) Ten ml of each solution was pipetted into 100 ml of a 2.5% (w/v) solution of poly vinyl alcohol (PVA, mol wt 13-21K Aldrich) with over head stirring at 500 rpm. After two hours stirring the PVA/microsphere suspension was poured through 90 um then 50 um sieves to collect the 50-90 um fraction of microspheres. These spheres were then washed in distilled water three times and dried under vacuum. The dried spheres were obtained in high yields (over 50% of the initial polymer was recovered as microspheres in the 50-90 um size range).
as §1, with “vacuum.” for “vacuum. The dried spheres were obtained in high yields (over 50% of the initial polymer was recovered as microspheres in the 50-90 um size range).”

[2] = polycaprolactone microspheres 50-90 um, drug to polymer 1:50
[3] = Example 19 microspheres 50-90 um, drug to polymer 1:40 (beta-lapachone) or 1:100 (etoposide, doxorubicin)

| SMILES | mean surgical adhesion score (surgical adhesions) | encapsulation efficiency of the drug in the polymer [1, 2] [%] | proteoglycan expression (proteoglycan gene) | encapsulation efficiency of the drug in the polymer [1, 3] [%] | toxicity of drug-loaded hyaluronic acid films (surgical adhesions; rat, in vivo) | surgical adhesion formation, in words (surgical adhesions; rats) | other results |
| --- | --- | --- | --- | --- | --- | --- | --- |
| CC[C@@]1(O)C(=O)OCc2c1cc1n(c2=O)Cc2cc3ccccc3nc2-1 [camptothecin] | 0.95 |  |  |  |  |  | proteoglycan expression (proteoglycan gene; 1×10^−7 M): without excessive inhibition; toxicity of drug-loaded hyaluronic acid films (surgical adhesions; films applied to abraded surgical site, rats): no associated toxicity |
| CC1=CC(=O)c2c(O)cccc2C1=O [plumbagin] |  | 85 |  |  |  |  | encapsulation efficiency of the drug in the polymer ([1]; poly(L-lactic acid) 2K microspheres 50-90 um, drug to polymer 1:10): 80% |
| CC1(C)CCC2=C(O1)c1ccccc1C(=O)C2=O [beta-lapachone] |  |  | without excessive inhibition | 97 | did not induce any toxic side effects |  |  |
| COc1cc([C@@H]2c3cc4c(cc3[C@@H](O[C@@H]3O[C@@H]5CO[C@@H](C)O[C@H]5[C@H](O)[C@H]3O)[C@H]3COC(=O)[C@H]23)OCO4)cc(OC)c1O [etoposide] |  |  |  |  | did not induce any toxic side effects | inhibition of adhesion formation occurs |  |
| CC1=CC(=O)c2ccccc2C1=O [menadione] |  | 73 | without excessive inhibition |  |  |  |  |
| COc1cccc2c1C(=O)c1c(O)c3c(c(O)c1C2=O)C[C@@](O)(C(=O)CO)C[C@@H]3O[C@H]1C[C@H](N)[C@H](O)[C@H](C)O1 [doxorubicin] | 1.24 |  |  | 95 | did not induce any toxic side effects | inhibition of adhesion formation occurs | surgical adhesion formation, in words (surgical adhesions; rats, listed as dodxorubicin): major inhibition of surgical adhesion formation |
